Laboratory results taken from patent publication US20130060013A1, “Compounds useful for treating neurodegenerative disorders” (SATORI PHARMACEUTICALS, INC., priority 2011, published 2013).
pIC50: −log10 of the molar value.

Legend:
Format in all cases: cell-based
Conditions in all cases: Homo sapiens, compound 5 hours at 37° C., 1% DMSO, percent vehicle fit to 4 parameter curve
Aβ-38 = Aβ-38 level in conditioned media of 2B7 cells (MSD 3-PLEX ELISA)
Experimental: (§1) Assays were conducted to determine the ability of a Compound of Formula I to modulate […], and Aβ-38.
(§2) Plates with capture antibodies were blocked for 1-2 hours at room temperature with 150 μL of the manufactures blocking reagent.
(§3) Cultured 2B7 cells in 96 well plate with 250 uL of media per well until confluent;
(§4) Prepared serial dilutions of compounds in DMSO at 100× the final desired concentration;
(§5) Washed wells with 2B7 cells 1× with 250 uL of media;
(§6) Diluted DMSO stocks 1:100 into media:
(§7) Added 250 μL of media containing compounds (1% DMSO) to wells with 2B7 cells for 5 hours at 37° C.
(§8) Diluted conditioned media: 1 part media with 1% DMSO and 1 part blocking buffer;
(§9) 150 μL of the 250 μL of conditioned media were used.
(§10) Standard Curve Sample Prep:
(§11) Prepared per manufacturer's protocol (see above)
(§12) Seven point standard curve samples were prepared that contained Aβ-42, Aβ-40, and Aβ-38. The highest concentration of Aβ-42 and Aβ-38 was 3,000 pg/mL and the highest concentration of Aβ-40 was 10,000 pg/mL. Subsequent serial dilutions were 1:3 and the final composition of each sample was 1 part blocking buffer and 1 part cell medium containing 1% DMSO.
(§13) Overnight Sample Incubation:
(§14) Blocked plates are washed 5× with MSD wash buffer with a plate washer
(§15) 25 uL of detection antibody and blocker G reagent in MSD blocking solution is added
(§16) 25 uL of samples (1 part conditioned media containing 1% DMSO and 1 part MSD blocking buffer) are then added.
(§17) plates are incubated overnight at 4 degrees C. or 2 hours at room temp
(§18) Wash wells 5× with MSD wash buffer
(§19) Added 150 μL 2×MSD read buffer
(§20) A-Beta peptide levels for each peptide are calculated from the standard curve using the MSD software provided with the MSD 2400 Imager. Percent vehicle values for each compound dosage were then calculated and fit to a 4 parameter curve generating IC50 values.

Aβ-40 = Aβ-40 level in conditioned media of 2B7 cells (MSD 3-PLEX ELISA)
Experimental: as §1
Human (6E10) Ab 3-PLEX elisa kits were purchased from Meso Scale Discovery Labs, 9328 Gaither Road, Gaithersburg, Md. 20877 (Catalog Number K15148E-3). Plates with capture antibodies were blocked for 1-2 hours at room temperature with 150 μL of the manufactures blocking reagent.
as §3, §4, §5, §6, §7, §8, §9, §10, §11, §12, §13, §14, §15, §16, §17, §18, §19, §20

Aβ-42 = Aβ-42 level in conditioned media of 2B7 cells (MSD 3-PLEX ELISA)
Experimental: as §1, §2, §3, §4, §5, §6, §7, §8, §9, §10, §11, §12, §13, §14, §15, §16, §17, §18, §19, §20

Compound	pIC50 (Aβ-38)	pIC50 (Aβ-40)	pIC50 (Aβ-42)
CCO[C@@H]([C@H]1C[C@@H](C)[C@H]2[C@H](O1)[C@H](O)[C@@]1(C)[C@@H]3CC[C@H]4C(C)(C)[C@@H](O[C@H]5CN([C@@H](C)C(=O)N6CCC6)CCO5)CCC45C[C@@]35CC[C@]21C)C(C)(C)O (stereo partly drawn)	5.00 to 6.00	< 5.00	> 6.00
CCO[C@@H]([C@H]1C[C@@H](C)[C@H]2[C@H](O1)[C@H](O)[C@@]1(C)[C@@H]3CC[C@H]4C(C)(C)[C@@H](O[C@H]5CN([C@@H](C)CN6CCC6)CCO5)CCC45C[C@@]35CC[C@]21C)C(C)(C)O (stereo partly drawn)	> 6.00	5.00 to 6.00	> 6.00
CCO[C@@H]([C@H]1C[C@@H](C)[C@H]2[C@H](O1)[C@H](O)[C@@]1(C)[C@@H]3CC[C@H]4C(C)(C)[C@@H](OC(=O)[C@@H]5C[C@@H](O)CN5C)CCC45C[C@@]35CC[C@]21C)C(C)(C)O (stereo partly drawn)	> 6.00	5.00 to 6.00	> 6.00
CCO[C@@H]([C@H]1C[C@@H](C)[C@H]2[C@H](O1)[C@H](O)[C@@]1(C)[C@@H]3CC[C@H]4C(C)(C)[C@@H](OC(=O)C5CCN5C)CCC45C[C@@]35CC[C@]21C)C(C)(C)O (stereo partly drawn)	5.00 to 6.00	< 5.00	> 6.00
CCO[C@@H]([C@H]1C[C@@H](C)[C@H]2[C@H](O1)[C@H](O)[C@@]1(C)[C@@H]3CC[C@H]4C(C)(C)[C@@H](O[C@H]5CN(CCCO)CCO5)CCC45C[C@@]35CC[C@]21C)C(C)(C)O (stereo partly drawn)	5.00 to 6.00	5.00 to 6.00	> 6.00
CCO[C@@H]([C@H]1C[C@@H](C)[C@H]2[C@H](O1)[C@H](O)[C@@]1(C)[C@@H]3CC[C@H]4C(C)(C)[C@@H](OC(=O)[C@@H]5COCCN5)CCC45C[C@@]35CC[C@]21C)C(C)(C)O (stereo partly drawn)	> 6.00	5.00 to 6.00	> 6.00
CCO[C@@H]([C@H]1C[C@@H](C)[C@H]2[C@H](O1)[C@H](O)[C@@]1(C)[C@@H]3CC[C@H]4C(C)(C)[C@@H](O[C@H]5CN(Cc6ccn(C)n6)CCO5)CCC45C[C@@]35CC[C@]21C)C(C)(C)O (stereo partly drawn)	5.00 to 6.00	< 5.00	> 6.00
CCO[C@@H]([C@H]1C[C@@H](C)[C@H]2[C@H](O1)[C@H](O)[C@@]1(C)[C@@H]3CC[C@H]4C(C)(C)[C@@H](O[C@H]5CN(CCN6CCOC6=O)CCO5)CCC45C[C@@]35CC[C@]21C)C(C)(C)O (stereo partly drawn)	> 6.00	5.00 to 6.00	> 6.00
CO[C@@H]([C@H]1C[C@@H](C)[C@H]2[C@H](O1)[C@H](O)[C@@]1(C)[C@@H]3CC[C@H]4C(C)(C)[C@@H](O[C@H]5CN(CCN(C)C)CCO5)CCC45C[C@@]35CC[C@]21C)C(C)(C)OC (stereo partly drawn)	> 6.00	5.00 to 6.00	> 6.00
CCO[C@@H]([C@H]1C[C@@H](C)[C@H]2[C@H](O1)[C@H](O)[C@@]1(C)[C@@H]3CC[C@H]4C(C)(C)[C@@H](O[C@H]5CN(C(=O)CNS(=O)(=O)C(F)(F)F)CCO5)CCC45C[C@@]35CC[C@]21C)C(C)(C)O (stereo partly drawn)	> 6.00	5.00 to 6.00	> 6.00
CCO[C@@H]([C@H]1C[C@@H](C)[C@H]2[C@H](O1)[C@H](O)[C@@]1(C)[C@@H]3CC[C@H]4C(C)(C)[C@@H](O[C@H]5CN(C6CN(C(C)=O)C6)CCO5)CCC45C[C@@]35CC[C@]21C)C(C)(C)O (stereo partly drawn)	5.00 to 6.00	5.00 to 6.00	> 6.00
CO[C@@H]([C@H]1C[C@@H](C)[C@H]2[C@H](O1)[C@H](O)[C@@]1(C)[C@@H]3CC[C@H]4C(C)(C)[C@@H](OC5CN(C6CCN(C)C6=O)CCO5)CCC45C[C@@]35CC[C@]21C)C(C)(C)O (stereo partly drawn)	> 6.00	< 5.00	> 6.00
CCO[C@@H]([C@H]1C[C@@H](C)[C@H]2[C@H](O1)[C@H](O)[C@@]1(C)[C@@H]3CC[C@H]4C(C)(C)[C@@H](O[C@H]5CN(C(C)(C)COC)CCO5)CCC45C[C@@]35CC[C@]21C)C(C)(C)O (stereo partly drawn)	> 6.00	< 5.00	> 6.00
CCO[C@@H](C1C[C@@H](C)[C@H]2C(O1)[C@H](O)[C@@]1(C)C3CC[C@H]4C(C)(C)[C@@H](O[C@H]5CN(c6cnccn6)CCO5)CCC45C[C@@]35CC[C@]21C)C(C)(C)O (stereo partly drawn)	> 6.00	< 5.00	> 6.00
CCO[C@@H](C1C[C@@H](C)[C@H]2C(O1)[C@H](O)[C@@]1(C)C3CC[C@H]4C(C)(C)[C@@H](O[C@H]5CN(C(=O)CC6CN(C)C6)CCO5)CCC45C[C@@]35CC[C@]21C)C(C)(C)O (stereo partly drawn)	> 6.00	5.00 to 6.00	> 6.00
CCO[C@@H]([C@H]1C[C@@H](C)[C@H]2[C@H](O1)[C@H](O)[C@@]1(C)[C@@H]3CC[C@H]4C(C)(C)[C@@H](O[C@H]5CN(CC6CN(C)C6)CCO5)CCC45C[C@@]35CC[C@]21C)C(C)(C)OC (stereo partly drawn)	> 6.00	5.00 to 6.00	> 6.00
CCO[C@@H]([C@H]1C[C@@H](C)[C@H]2[C@H](O1)[C@H](OCC)[C@@]1(C)[C@@H]3CC[C@H]4C(C)(C)[C@@H](O)CCC45C[C@@]35CC[C@]21C)C(C)(C)O (stereo partly drawn)	5.00 to 6.00	5.00 to 6.00	5.00 to 6.00
CO[C@@H]([C@H]1C[C@@H](C)[C@H]2[C@H](O1)[C@H](O)[C@@]1(C)[C@@H]3CC[C@H]4C(C)(C)[C@@H](OC5CN(C6CN(C)C6)CCO5)CCC45C[C@@]35CC[C@]21C)C(C)(C)O (stereo partly drawn)	> 6.00	5.00 to 6.00	> 6.00
CCO[C@@H]([C@H]1C[C@@H](C)[C@H]2[C@H](O1)[C@H](O)[C@@]1(C)[C@@H]3CC[C@H]4C(C)(C)[C@@H](O[C@H]5CN([C@H](C)CF)CCO5)CCC45C[C@@]35CC[C@]21C)C(C)(C)O (stereo partly drawn)	5.00 to 6.00	< 5.00	5.00 to 6.00
CCO[C@@H]([C@H]1C[C@@H](C)[C@H]2[C@H](O1)[C@H](O)[C@@]1(C)[C@@H]3CC[C@H]4C(C)(C)[C@@H](OC(=O)[C@@H]5C[C@@H](O)CN5)CCC45C[C@@]35CC[C@]21C)C(C)(C)O (stereo partly drawn)	> 6.00	5.00 to 6.00	> 6.00
CO[C@@H]([C@H]1C[C@@H](C)[C@H]2[C@H](O1)[C@H](O)[C@@]1(C)[C@@H]3CC[C@H]4C(C)(C)[C@@H](O[C@H]5CN(CCN6CCOCC6)CCO5)CCC45C[C@@]35CC[C@]21C)C(C)(C)O (stereo partly drawn)	> 6.00	5.00 to 6.00	> 6.00
CCO[C@@H]([C@H]1C[C@@H](C)[C@H]2[C@H](O1)[C@H](O)[C@@]1(C)[C@@H]3CC[C@H]4C(C)(C)[C@@H](OC(=O)C5CCN5C(=O)OC(C)(C)C)CCC45C[C@@]35CC[C@]21C)C(C)(C)O (stereo partly drawn)	5.00 to 6.00	5.00 to 6.00	> 6.00
CCO[C@@H]([C@H]1C[C@@H](C)[C@H]2[C@H](O1)[C@H](O)[C@@]1(C)[C@@H]3CC[C@H]4C(C)(C)[C@@H](O[C@H]5CN(CC(=O)NCCOC)CCO5)CCC45C[C@@]35CC[C@]21C)C(C)(C)O (stereo partly drawn)	5.00 to 6.00	5.00 to 6.00	> 6.00
CCO[C@@H]([C@H]1C[C@@H](C)[C@H]2[C@H](O1)[C@H](O)[C@@]1(C)[C@@H]3CC[C@H]4C(C)(C)[C@@H](O[C@H]5CN(CCF)CCO5)CCC45C[C@@]35CC[C@]21C)C(C)(C)O (stereo partly drawn)	> 6.00	5.00 to 6.00	> 6.00
CCO[C@@H]([C@H]1C[C@@H](C)[C@H]2[C@H](O1)[C@H](O)[C@@]1(C)[C@@H]3CC[C@H]4C(C)(C)[C@@H](OC5CN(CC(=O)N6CCOCC6)CCO5)CCC45C[C@@]35CC[C@]21C)C(C)(C)O (stereo partly drawn)	> 6.00	< 5.00	> 6.00
CCO[C@@H]([C@H]1C[C@@H](C)[C@H]2[C@H](O1)[C@H](O)[C@@]1(C)[C@@H]3CC[C@H]4C(C)(C)[C@@H](OC(=O)C5CN(C6CCC6)C5)CCC45C[C@@]35CC[C@]21C)C(C)(C)O (stereo partly drawn)	> 6.00	5.00 to 6.00	> 6.00
CCO[C@@H]([C@H]1C[C@@H](C)[C@H]2[C@H](O1)[C@H](O)[C@@]1(C)[C@@H]3CC[C@H]4C(C)(C)[C@@H](OC(=O)[C@@H]5COCCN5C)CCC45C[C@@]35CC[C@]21C)C(C)(C)O (stereo partly drawn)	> 6.00	5.00 to 6.00	> 6.00
CCO[C@@H]([C@H]1C[C@@H](C)[C@H]2[C@H](O1)[C@H](O)[C@@]1(C)[C@@H]3CC[C@H]4C(C)(C)[C@@H](O[C@H]5CN([C@H](C)COC)CCO5)CCC45C[C@@]35CC[C@]21C)C(C)(C)O (stereo partly drawn)	5.00 to 6.00	< 5.00	> 6.00
